# Measured values published in patent US6878722B2, “Substituted cycloalkyl P1′ hepatitis C virus inhibitors” (Bristol-Myers Squibb Company, priority 2002, dated 2005).
# How the values were obtained:
# Format in all cases: biochemical
# [1] = target: T1, HCV NS3/4A protease complex (J4L6S strain, 1b genotype) (Hepatitis C virus genotype 1b, UniProt O92972, C1454S/C1711G); test: Recombinant HCV NS3/4A protease complex FRET peptide assay, J4L6S strain
# T1 construct: DNA encoding the recombinant HCV NS3/4A protease complex (amino acids 1027 to 1711) for these strains; inferred from the pET21b vector and Ni-NTA purification; made in house; host or cells: Escherichia coli BL21 (DE3), pET21b
# From the text: The purpose of this in vitro assay was to measure the inhibition of HCV NS3 protease complexes, derived from the BMS, H77C or J416S strains, as described below, by compounds of the present invention.
# Serum from an HCV-infected patient was obtained from Dr. T. Wright, San Francisco Hospital. An engineered full-length cDNA (compliment deoxyribonucleic acid) template of the HCV genome (BMS strain) was constructed from DNA fragments obtained by reverse transcription-PCR (RT-PCR) of serum RNA (ribonucleic acid) and using primers selected on the basis of homology between other genotype 1a strains. […] The infectious clones, H77C (1a genotype) and J4L6S (1b genotype) were obtained from R. Purcell (NIH) and the sequences are published in Genbank (AAB67036, see Yanagi,M., Purcell,R. H., Emerson,S. U. and Bukh,J. Proc. Natl. Acad. Sci. U.S.A. 94(16),8738-8743 (1997); AF054247, see Yanagi,M., St Claire,M., Shapiro,M., Emerson,S. U., Purcell,R. H. and Bukh,J, Virology 244 (1), 161-172. (1998)).
# The BMS, H77C and J4L6S strains were used for production of recombinant NS3/4A protease complexes. DNA encoding the recombinant HCV NS3/4A protease complex (amino acids 1027 to 1711) for these strains were manipulated as described by P. Gallinari et al. (see Gallinari P, Paolini C, Brennan D, Nardi C, Steinkuhler C, De Francesco R. Biochemistry. 38(17):5620-32, (1999)). […]
# [2] = target: T2, human sputum elastase (HS) (Homo sapiens, UniProt P08246); test: Specificity assay, human sputum elastase; settings: 2 hr pre-incubation
# T2 construct: purchased Sigma
# T2 sequence (P08246 30-267): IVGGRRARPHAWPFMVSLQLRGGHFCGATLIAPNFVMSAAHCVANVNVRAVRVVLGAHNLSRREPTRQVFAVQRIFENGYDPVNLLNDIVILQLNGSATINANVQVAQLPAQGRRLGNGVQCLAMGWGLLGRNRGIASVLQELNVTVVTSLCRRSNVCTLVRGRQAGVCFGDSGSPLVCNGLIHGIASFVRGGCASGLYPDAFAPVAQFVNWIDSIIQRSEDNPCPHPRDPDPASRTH
# [3] = target: T3, porcine pancreatic elastase (PPE) (Sus scrofa, UniProt P00772); test: Specificity assay, porcine pancreatic elastase; settings: 2 hr pre-incubation
# T3 construct: purchased Sigma
# Experimental: The specificities of compounds of the present invention were determined against a variety of serine proteases: human sputum elastase (HS), porcine pancreatic elastase (PPE) and human pancreatic chymotrypsin and one cysteine protease: human liver cathepsin B. In all cases a 96-well plate format protocol using colorimetric p-nitroaniline (pNA) substrate specific for each enzyme was used as described previously (Patent WO 00/09543) with some modifications to the serine protease assays. All enzymes were purchased from Sigma while the substrates were from Bachem.
# Each assay included a 2 hr enzyme-inhibitor pre-incubation at room temperature followed by addition of substrate and hydrolysis to ˜30% conversion as measured on a Spectramax Pro microplate reader. Compound concentrations varied from 100 to 0.4 μM depending on their potency. […]
# The percentage of inhibition was calculated using the formula: [1−((UVinh−UVblank)/(UVctl−UVblank))]×100 […]
# T3 sequence (P00772 27-266): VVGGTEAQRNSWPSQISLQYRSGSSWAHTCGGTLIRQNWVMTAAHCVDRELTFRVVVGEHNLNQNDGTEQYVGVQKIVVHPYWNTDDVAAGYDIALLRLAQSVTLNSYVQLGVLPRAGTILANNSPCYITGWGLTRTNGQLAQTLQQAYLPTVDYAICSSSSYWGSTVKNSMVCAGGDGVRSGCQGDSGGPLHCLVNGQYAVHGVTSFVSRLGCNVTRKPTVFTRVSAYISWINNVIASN
# T1 sequence (O92972 1027-1711 C1454S/C1711G, one chain of several): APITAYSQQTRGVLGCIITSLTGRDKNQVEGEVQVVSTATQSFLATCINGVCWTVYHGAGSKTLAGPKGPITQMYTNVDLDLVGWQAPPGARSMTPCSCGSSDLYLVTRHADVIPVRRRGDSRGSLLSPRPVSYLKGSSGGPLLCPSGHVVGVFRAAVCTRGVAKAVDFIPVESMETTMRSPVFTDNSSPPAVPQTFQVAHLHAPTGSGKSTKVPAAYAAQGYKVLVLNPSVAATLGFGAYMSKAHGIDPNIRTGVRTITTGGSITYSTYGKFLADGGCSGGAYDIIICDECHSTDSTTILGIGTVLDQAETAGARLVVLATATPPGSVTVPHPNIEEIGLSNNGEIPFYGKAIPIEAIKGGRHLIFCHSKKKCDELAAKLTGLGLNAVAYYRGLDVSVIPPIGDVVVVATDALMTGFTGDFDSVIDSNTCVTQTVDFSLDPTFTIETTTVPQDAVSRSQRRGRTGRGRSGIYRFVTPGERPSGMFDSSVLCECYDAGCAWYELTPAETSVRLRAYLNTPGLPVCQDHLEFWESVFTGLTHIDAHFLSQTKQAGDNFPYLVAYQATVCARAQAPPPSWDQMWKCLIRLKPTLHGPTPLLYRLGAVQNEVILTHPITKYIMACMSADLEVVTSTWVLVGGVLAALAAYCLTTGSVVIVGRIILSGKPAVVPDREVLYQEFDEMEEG
smiles,measurement,setting,value
"C=CC1C[C@]1(NC(=O)[C@@H]1C[C@@H](Oc2cc(-c3ccccc3)nc3cc(OC)ccc23)CN1C(=O)[C@@H](NC(=O)OC(C)(C)C)C(C)(C)C)C(=O)NS(=O)(=O)C1(C)CC1 (stereo in doubt) [Compound 1, (1-{4-(7-Methoxy-2-phenylquinolin-4-yloxy)-2-[1-(1-methylcyclopropanesulfonylaminocarbonyl)-2-vinylcyclopropylcarbamoyl]pyrrolidine-1-carbonyl}-2,2-dimethylpropyl)carbamic acid tert-butyl ester]",IC50,[1],0.0011 µM
same,IC50,[2],43 µM
same,IC50,[3],> 100 µM
